Assay results published in ChEMBL document CHEMBL3425483, “Synthesis, characterization, hypoglycemic and aldose reductase inhibition activity of arylsulfonylspiro[fluorene-9,5'-imidazolidine]-2',4'-diones” (Eur J Med Chem, 2015).
The source made the active and inactive calls. No cut-off for these calls is given here.

What was measured:
[1] = molecular target: Aldo-keto reductase family 1 member B1 (Bos taurus, UniProt P16116); test: Inhibition of ALR2 in calf lenses using DL-glyceraldehyde as substrate treated with compound for 10 mins prior to substrate addition by UV spectrophotometer analysis; set-up: species or system Lens of camera-type eye
Bos taurus = species: Bos taurus; test: Selectivity index, ratio of IC50 for ALR1 in calf kidney to IC50 for ALR2 in calf lenses; type: tissue-based; settings: Lens of camera-type eye
Mus musculus [2] = test: In-vivo hypoglycemic activity in alloxan-pretreated diabetic BALB/c mouse assessed as decrease in blood glucose level after 8 hrs by glucometer analysis; type: functional
[3] = Retardation factor of the compound using petroleum ether/ethylacetate (6:4) as solvent system by TLC; type: physicochemical
Mus musculus [4] = test: In-vivo hypoglycemic activity in alloxan-pretreated diabetic BALB/c mouse assessed as blood glucose level after 2 hrs by glucometer analysis (reference value: 239.0 to 444.4 mg/dl); type: functional
Mus musculus [5] = test: In-vivo hypoglycemic activity in alloxan-pretreated diabetic BALB/c mouse assessed as blood glucose level after 4 hrs by glucometer analysis (reference value: 239.0 to 444.4 mg/dl); type: functional
Mus musculus [6] = test: In-vivo hypoglycemic activity in alloxan-pretreated diabetic BALB/c mouse assessed as blood glucose level after 6 hrs by glucometer analysis (reference value: 239.0 to 444.4 mg/dl); type: functional
[7] = molecular target: Aldo-keto reductase family 1 member A1 (Bos taurus, UniProt Q3ZCJ2); test: Inhibition of ALR1 in calf kidney using sodium D-glucoronate as substrate treated with compound for 10 mins prior to substrate addition by UV spectrophotometer analysis
Mus musculus [8] = test: In-vivo hypoglycemic activity in alloxan-pretreated diabetic BALB/c mouse assessed as blood glucose level after 8 hrs by glucometer analysis (reference value: 239.0 to 444.4 mg/dl); type: functional
Mus musculus [9] = test: In-vivo hypoglycemic activity in alloxan-pretreated diabetic BALB/c mouse assessed as blood glucose level at 10 mg/kg after 8 hrs by glucometer analysis; type: functional
Mus musculus [10] = test: In-vivo hypoglycemic activity in alloxan-pretreated diabetic BALB/c mouse assessed as blood glucose level at 10 mg/kg after 4 hrs by glucometer analysis (reference value: 385.2 +/- 8.94 mg/dl); type: functional
Mus musculus [11] = test: In-vivo hypoglycemic activity in alloxan-pretreated diabetic BALB/c mouse assessed as blood glucose level at 10 mg/kg after 8 hrs by glucometer analysis (reference value: 385.2 +/- 8.94 mg/dl); type: functional
Mus musculus [12] = test: In-vivo hypoglycemic activity in alloxan-pretreated diabetic BALB/c mouse assessed as blood glucose level at 10 mg/kg after 2 hrs by glucometer analysis (reference value: 385.2 +/- 8.94 mg/dl); type: functional
Mus musculus [13] = test: In-vivo hypoglycemic activity in alloxan-pretreated diabetic BALB/c mouse assessed as blood glucose level at 10 mg/kg after 6 hrs by glucometer analysis (reference value: 385.2 +/- 8.94 mg/dl); type: functional
[14] = system: aldehyde reductase (ALR1), Bos taurus; test: Inhibition of ALR1 in calf kidney using sodium D-glucoronate as substrate at 0.6 mM treated with compound for 10 mins prior to substrate addition by UV spectrophotometer analysis
[15] = molecular target: Aldo-keto reductase family 1 member B1 (Bos taurus) (UniProt P16116); test: Inhibition of ALR2 in calf lenses using DL-glyceraldehyde as substrate at 0.6 mM treated with compound for 10 mins prior to substrate addition by UV spectrophotometer analysis; settings: Lens of camera-type eye
[16] = molecular target: Aldo-keto reductase family 1 member B1 (Bos taurus) (UniProt P16116); test: Uncompetitive inhibition of ALR2 in calf lenses using DL-glyceraldehyde as substrate at 20 uM by Lineweaver-Burk plot analysis; settings: Lens of camera-type eye

Aldo-keto reductase family 1 member A1, sequence (Q3ZCJ2 2-325 limits assumed): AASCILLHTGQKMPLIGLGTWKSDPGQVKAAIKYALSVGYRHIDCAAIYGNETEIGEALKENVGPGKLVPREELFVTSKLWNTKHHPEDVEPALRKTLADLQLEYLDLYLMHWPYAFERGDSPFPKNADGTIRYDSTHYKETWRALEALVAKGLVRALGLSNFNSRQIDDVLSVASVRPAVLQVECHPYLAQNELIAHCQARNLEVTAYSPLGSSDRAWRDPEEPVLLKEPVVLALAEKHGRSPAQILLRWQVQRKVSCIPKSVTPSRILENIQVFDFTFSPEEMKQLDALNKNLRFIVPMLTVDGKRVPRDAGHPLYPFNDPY

IC50 [1]	Rf [3]	IC50 [7]	inhibition [14]	inhibition [15]	inhibition [16]	Compound	Ratio IC50 (Bos taurus)	inhibition (INH) (Mus musculus [2])	Activity (Mus musculus [4])	Activity (Mus musculus [5])	Activity (Mus musculus [6])	Activity (Mus musculus [8])	inhibition in vivo at 10 mg/kg (Mus musculus [9])	Activity (Mus musculus [10])	Activity (Mus musculus [11])	Activity (Mus musculus [12])	Activity (Mus musculus [13])
3.86 µM	0.33	11.5 µM	–	–	–	O=C1NC(=O)C2(c3ccccc3-c3ccccc32)N1S(=O)(=O)c1ccc(Br)cc1	2.97	70.55%	217 mg/dL	168 mg/dL	115.8 mg/dL	72.8 mg/dL	–	–	–	–	–
7.88 µM	0.31	12.3 µM	–	–	–	O=C1NC(=O)C2(c3ccccc3-c3ccccc32)N1S(=O)(=O)c1ccc([N+](=O)[O-])cc1	–	62.86%	226.6 mg/dL	189.4 mg/dL	176.8 mg/dL	138.2 mg/dL	–	–	–	–	–
0.89 µM	0.31	–	47.9%	–	Active	O=C1NC2(C(=O)N1S(=O)(=O)c1ccc(Cl)cc1)c1ccccc1-c1ccccc12	53.8	72.24%	232 mg/dL	160.4 mg/dL	78.8 mg/dL	68 mg/dL	–	–	–	–	–
2.29 µM	0.25	8.8 µM	–	–	–	Cc1ccc(S(=O)(=O)N2C(=O)NC(=O)C23c2ccccc2-c2ccccc23)cc1	3.84	61.67%	286.2 mg/dL	239.4 mg/dL	152.2 mg/dL	116.2 mg/dL	–	–	–	–	–
1.72 µM	0.2	12.1 µM	–	–	–	O=C1NC(=O)C2(c3ccccc3-c3ccccc32)N1S(=O)(=O)c1ccc(Cl)cc1	9.68	–	259.8 mg/dL	289 mg/dL	323.4 mg/dL	355 mg/dL	–	–	–	–	–
5.8 µM	0.43	13.9 µM	–	–	–	COc1ccc(S(=O)(=O)N2C(=O)NC(=O)C23c2ccccc2-c2ccccc23)cc1	2.39	66.38%	275.6 mg/dL	205.6 mg/dL	143.6 mg/dL	129 mg/dL	–	–	–	–	–

Continued, compound first:

Compound	IC50 [1]	Rf [3]	IC50 [7]	inhibition [14]	inhibition [15]	inhibition [16]	Ratio IC50 (Bos taurus)	inhibition (INH) (Mus musculus [2])	Activity (Mus musculus [4])	Activity (Mus musculus [5])	Activity (Mus musculus [6])	Activity (Mus musculus [8])	inhibition in vivo at 10 mg/kg (Mus musculus [9])	Activity (Mus musculus [10])	Activity (Mus musculus [11])	Activity (Mus musculus [12])	Activity (Mus musculus [13])
COc1ccc(Cl)cc1C(=O)NCCc1ccc(S(=O)(=O)NC(=O)NC2CCCCC2)cc1 [GLYBURIDE]	–	–	–	–	–	–	–	–	–	–	–	–	60.9%	229.3 mg/dL	150.5 mg/dL	289.1 mg/dL	170.7 mg/dL
Cc1ccc(S(=O)(=O)N2C(=O)NC3(C2=O)c2ccccc2-c2ccccc23)cc1	2.84 µM	0.27	5.15 µM	–	–	–	1.81	48.28%	229.3 mg/dL	180 mg/dL	146.6 mg/dL	123.6 mg/dL	–	–	–	–	–
O=C1NC2(C(=O)N1S(=O)(=O)c1ccc3ccccc3c1)c1ccccc1-c1ccccc12	–	0.44	–	47.9%	52%	–	–	66.44%	277 mg/dL	206 mg/dL	123 mg/dL	108.6 mg/dL	–	–	–	–	–
O=C1c2ccccc2C(=O)c2cc(S(=O)(=O)N3C(=O)NC(=O)C34c3ccccc3-c3ccccc34)ccc21	10.3 µM	0.44	20.3 µM	–	–	–	1.97	–	467 mg/dL	500 mg/dL	522.2 mg/dL	544.6 mg/dL	–	–	–	–	–
O=C1NC(=O)C2(c3ccccc3-c3ccccc32)N1S(=O)(=O)c1ccc2ccccc2c1	27.3 µM	0.41	12.5 µM	–	–	–	0.45	64.13%	271.2 mg/dL	197.3 mg/dL	138.5 mg/dL	135 mg/dL	–	–	–	–	–
O=C1NC2(C(=O)N1S(=O)(=O)c1ccc([N+](=O)[O-])cc1)c1ccccc1-c1ccccc12	1.8 µM	0.35	3.51 µM	–	–	–	1.95	55.25%	226.6 mg/dL	190.4 mg/dL	175.2 mg/dL	121.8 mg/dL	–	–	–	–	–
COc1ccc(S(=O)(=O)N2C(=O)NC3(C2=O)c2ccccc2-c2ccccc23)cc1	1.02 µM	0.42	26.1 µM	–	–	–	25.6	–	380.2 mg/dL	376 mg/dL	402.8 mg/dL	418.8 mg/dL	–	–	–	–	–
O=C1c2ccccc2C(=O)c2cc(S(=O)(=O)N3C(=O)NC4(C3=O)c3ccccc3-c3ccccc34)ccc21	11.3 µM	0.47	–	44.9%	–	–	2.41	–	305.8 mg/dL	336.4 mg/dL	400.4 mg/dL	442.6 mg/dL	–	–	–	–	–
O=C1NC2(C(=O)N1S(=O)(=O)c1ccc(Br)cc1)c1ccccc1-c1ccccc12	5.37 µM	0.31	–	52%	–	–	9.68	73.72%	266.5 mg/dL	297.2 mg/dL	339.5 mg/dL	63.5 mg/dL	–	–	–	–	–
